Reference: patent US10752900B2, “Oligonucleotides for modulating gene expression and uses thereof” (BIOGENERA S.P.A., priority 2012, dated 2020)

Assays:
MYCN gene [1] = assay: QT-PCR, MYCN mRNA in WERI-Rb1 cells; format: cell-based; details: Table 6
Experimental: For the purpose of assessing the ability of the oligonucleotides of the present invention to modulate the expression of the target genes, their ability to reduce the quantity of messenger RNA was analyzed using the Real-Time PCR technique. For this purpose, use was made of 24-well plates, which were seeded with 5.0×10^4 cells with 0.3 ml of OPTI-MEM (GIBCO BRL) medium, 4% FBS and 2 mM L-glutammine (experiments in triplicate) per well. The cells were incubated for 24 hours at 37° C., in an atmosphere containing 5% CO2 to permit adherence to the base of the wells. For each well, the oligonucleotides were analyzed at the following final concentrations: • the antisense oligonucleotides siRNA and siRNA gapmer (i.e. the oligonucleotides containing one or more monomers of chemically modified nucleic acids at the 3' or 5' end, while in the central portion they have monomers of nucleic acids that have not been modified or have been modified at the level of the phosphodiester bond as a phosphorothioate bond) were used at 200 nM; • the antisense oligonucleotides containing phosphorothioate DNA monomers, the RNA antigene oligonucleotides (agRNA) and the oligonucleotides containing DNA monomers and LNA monomers were used at 10 μM; • the morpholino oligonucleotides were used at a concentration of 1 μM, and • the PNA oligonucleotides were administered at a concentration of 1 μM. The cells were treated with the oligonucleotides, adding FBS up to 4% 6 hours after administration of the same. After 24 hours the total RNA was extracted from each well and purified using the RNeasy Mini Kit (QIAGEN). As a control, use was made of the same cell lines as listed above treated with sterile water instead of oligonucleotides. Each RNA sample was quantified (in duplicate) using a NanoDrop ND-1000 spectrophotometer (NanoDrop Technologies). The first strand of cDNA was produced using the cDNA Synthesis Kit for RT-PCR (Roche). For the cDNA synthesis reaction a total of 1 μg of RNA was used. For the real-time PCR, 10 ng of cDNA in a final volume of 20 μl was used with SYBR Green Master Mix 2× (Applied Biosystems) (3 identical experiments were conducted in triplicate). Two housekeeping genes were used as positive controls: GAPDH and beta-actin (ACTB). The conditions of the QT-PCR reaction were: 10 min at 95° C., 20 sec at 95° C., and 30 sec at 60° C., for 50 cycles. The PNAs having SEQ ID NO: 1-12 were also tested on different cell lines which overexpress MYCN (Kelly, SKNBE2c, RH30, […] 1 and H69). The results are shown in Table 6 and confirm the selectivity and specificity of the inhibition effect of the PNAs on the product of protein translation of the MYCN gene.

MYCN gene [2] = assay: QT-PCR, MYCN mRNA in Kelly cells; format: cell-based, human; parameters: mRNA Inhibition (%)(Kelly): concentration or dose not given beside the values; details: for mRNA inhibition (%): Table 1, PNA 1 μM, RNA extracted after 24 hours; for Kelly % mRNA: Table 6
Experimental: For the purpose of assessing the ability of the oligonucleotides of the present invention to modulate the expression of the target genes, their ability to reduce the quantity of messenger RNA was analyzed using the Real-Time PCR technique.
For this purpose, use was made of 24-well plates, which were seeded with 5.0×10^4 cells with 0.3 ml of OPTI-MEM (GIBCO BRL) medium, 4% FBS and 2 mM L-glutammine (experiments in triplicate) per well.
The cells were incubated for 24 hours at 37° C., in an atmosphere containing 5% CO2 to permit adherence to the base of the wells.
Each oligonucleotide analyzed, except for the PNA oligonucleotides, was incubated beforehand with 2 μl of Lipofectamine 2000 (Invitrogen), with 0.3 mL of serum-free OPTI-MEM (GIBCO BRL) medium.
For each well, the oligonucleotides were analyzed at the following final concentrations: • the antisense oligonucleotides siRNA and siRNA gapmer (i.e. the oligonucleotides containing one or more monomers of chemically modified nucleic acids at the 3′ or 5′ end, while in the central portion they have monomers of nucleic acids that have not been modified or have been modified at the level of the phosphodiester bond as a phosphorothioate bond) were used at 200 nM; • the antisense oligonucleotides containing phosphorothioate DNA monomers, the RNA antigene oligonucleotides (agRNA) and the oligonucleotides containing DNA monomers and LNA monomers were used at 10 μM; • the morpholino oligonucleotides were used at a concentration of 1 μM, and • the PNA oligonucleotides were administered at a concentration of 1 μM.
The cells were treated with the oligonucleotides, adding FBS up to 4% 6 hours after administration of the same. After 24 hours the total RNA was extracted from each well and purified using the RNeasy Mini Kit (QIAGEN).
Assays were performed on 8 cell lines obtained from 5 different human tumours which are correlated with MYCN expression, i.e.: • as a neuroblastoma model use was made of the cell lines Kelly, IMR-32 (where the MYCN gene is amplified and superexpressed) and SKNBE2c and LAN1 (where the MYCN gene is amplified and superexpressed and the p53 gene is mutated); • as a rabdomiosarcoma model use was made of the cell line RH30, where the MYCN gene is amplified and superexpressed; • as a Wilms' tumour model use was made of the cell line WiT49, where the MYCN gene is amplified and superexpressed; • as a retinoblastoma model use was made of the cell line Y79, where the MYCN gene is amplified and superexpressed; and • as a model of small cell lung cancer use was made of the cell line H69 where the MYCN gene is amplified and superexpressed.
As a control, use was made of the same cell lines as listed above treated with sterile water instead of oligonucleotides. Each RNA sample was quantified (in duplicate) using a NanoDrop ND-1000 spectrophotometer (NanoDrop Technologies). The first strand of cDNA was produced using the cDNA Synthesis Kit for RT-PCR (Roche). For the cDNA synthesis reaction a total of 1 μg of RNA was used. For the real-time PCR, 10 ng of cDNA in a final volume of 20 μl was used with SYBR Green Master Mix 2× (Applied Biosystems) (3 identical experiments were conducted in triplicate). Two housekeeping genes were used as positive controls: GAPDH and beta-actin (ACTB).
The conditions of the QT-PCR reaction were: 10 min at 95° C., 20 sec at 95° C., and 30 sec at 60° C., for 50 cycles.
As far as the PNA oligonucleotides are concerned, the results regarding their ability to inhibit the transcription of the MYCN gene and proliferation of Kelly cells are shown in Table 1.
The oligonucleotides were tested in vitro (at a concentration of 2.5 μM) to determine their ability to inhibit the transcription of the gene they are directed against by measuring the levels of the gene messenger in cellular models in which the gene of interest is overexpressed. The methods used are the ones described in example 1. […]

| Substance | WERI-Rb1 % mRNA (MYCN gene [1]) [%] | mRNA inhibition (%) (MYCN gene [2]) | Kelly % mRNA (MYCN gene [2]) [%] | mRNA Inhibition (%)(Kelly) (MYCN gene [2]; Table 7, SEQ ID NO: 5 and guanine-group mutants) [%] |
| --- | --- | --- | --- | --- |
| SEQ ID NO: 1: PNA ATGCCGGGCATGATCT against MYCN; subject of patent EP 1618195, control sequence used for comparison (all peptide nucleic acid (PNA)) [reference compound] | 31 | 42 | 48 | – |
| SEQ ID NO: 2: PNA antigene oligonucleotide GGGTGGATGCGGGGGG directed against MYCN (PNA backbone, chemistry not fully specified) | 46 | 75 | 75 | – |
| SEQ ID NO: 3: PNA antigene oligonucleotide GATGCGGGGGGCTCCT directed against MYCN (PNA backbone, chemistry not fully specified) | 43 | 68 | 68 | – |
| SEQ ID NO: 4: PNA antigene oligonucleotide GTCGGCGGGAGGTAAG directed against MYCN (PNA backbone, chemistry not fully specified) | 41 | 65 | 65 | – |
| SEQ ID NO: 5: PNA antigene oligonucleotide GCTGGGTGGATGCGGG directed against MYCN (PNA backbone, chemistry not fully specified) | 38 | 62 | 62 | 62 |
| SEQ ID NO: 6: PNA antigene oligonucleotide TGGACGCGCTGGGTGG directed against MYCN (PNA backbone, chemistry not fully specified) | 37 | 60 | 60 | – |
| SEQ ID NO: 7: PNA antigene oligonucleotide CGCGCTGGGTGGATGC directed against MYCN (all peptide nucleic acid (PNA)) | 38 | 58 | 58 | – |
| SEQ ID NO: 8: PNA antigene oligonucleotide GTCTGGACGCGCTGGG directed against MYCN (all peptide nucleic acid (PNA)) | 40 | 54 | 54 | – |
| SEQ ID NO: 9: PNA antigene oligonucleotide CCCTGCAGTCGGCGGG directed against MYCN (all peptide nucleic acid (PNA)) | 36 | 51 | 51 | – |
| SEQ ID NO: 10: PNA antigene oligonucleotide CGGCCGCGGGCCGCCA directed against MYCN (PNA backbone, chemistry not fully specified) | 30 | 51 | 51 | – |
| SEQ ID NO: 11: PNA antigene oligonucleotide GGGAACTGTGTTGGAG directed against MYCN (PNA backbone, chemistry not fully specified) | 30 | 48 | 50 | – |
| SEQ ID NO: 12: PNA antigene oligonucleotide TGTCTGGACGCGCTGG directed against MYCN (all peptide nucleic acid (PNA)) | 30 | 47 | 50 | – |
